Reference: patent US20250382302A1, “Anticancer polyheterocyclic compounds and associated methods” (University of Denver, priority 2024, published 2025)

Key:
K-562 = experiment: NCI five-dose testing, K-562
T-47D = experiment: NCI five-dose testing, T-47D; settings: for TGI: Breast Cancer, T-47D; for GI50 / CC50: Homo sapiens, T47D; for CC50: read-out: LC50
MOLT-4 = experiment: NCI five-dose testing, MOLT-4; settings: for GI50 / CC50: Homo sapiens; for GI50 / TGI: MOLT-4; for CC50: MOLT-4, read-out: LC50; for TGI: Leukemia
CCRF-CEM = experiment: NCI five-dose testing, CCRF-CEM; settings: for GI50 / CC50: Homo sapiens; for CC50: read-out: LC50; for TGI: Leukemia
NCI-H522 = experiment: NCI five-dose testing, NCI-H522
HL-60(TB) = experiment: NCI five-dose testing, HL-60(TB)
RPMI-8226 = experiment: NCI five-dose testing, RPMI-8226
MDA-MB-468 = experiment: NCI five-dose testing, MDA-MB-468; settings: for TGI: Breast Cancer; for TGI / GI50: MDA-MB-468; for GI50 / CC50: Homo sapiens; for CC50: MDA-MB-468, read-out: LC50
SK-MEL-5 = experiment: NCI five-dose testing, SK-MEL-5; format: cell-based; settings: Melanoma; for GI50 / CC50: Homo sapiens; for CC50: read-out: LC50 (the source's name)
IGROV1 = experiment: NCI five-dose testing, IGROV1; format: cell-based; settings: for GI50 / CC50: Homo sapiens, IGROV-1, Ovarian Cancer; for CC50: read-out: LC50 (the source's name); for TGI: Ovarian Cancer
SR = experiment: NCI five-dose testing, SR
OVCAR-4 = experiment: NCI five-dose testing, OVCAR-4
EKVX = experiment: NCI five-dose testing, EKVX; format: cell-based; settings: Non-Small Cell Lung Cancer
RXF 393 = experiment: NCI five-dose testing, RXF 393; format: cell-based; settings: Renal Cancer
MCF7 = experiment: NCI five-dose testing, MCF7
[1] = Homo sapiens, read-out: LC50 (the source's name)

| SMILES | TGI (T-47D) | GI50 (T-47D) | CC50 (T-47D) | GI50 (MOLT-4) | CC50 (MOLT-4) | TGI (MOLT-4) | GI50 (CCRF-CEM) | CC50 (CCRF-CEM) | TGI (CCRF-CEM) | TGI (MDA-MB-468) | GI50 (MDA-MB-468) | CC50 (MDA-MB-468) | GI50 (SK-MEL-5) | CC50 (SK-MEL-5) | TGI (SK-MEL-5) | GI50 (IGROV1) | CC50 (IGROV1) | TGI (IGROV1) | also measured |
| --- | --- | --- | --- | --- | --- | --- | --- | --- | --- | --- | --- | --- | --- | --- | --- | --- | --- | --- | --- |
| C=CCN(C(=O)C(=O)NC1=CC(=O)c2ccccc2C1=O)c1ccsc1C(=O)OC | 2.61 × 10^−6 | 1320 nM | 5140 nM | 1110 nM | 4810 nM | 2.31 × 10^−6 | 1300 nM | 5070 nM | 2.57 × 10^−6 | 9.41 × 10^−7 | 226 nM | 3090 nM |  |  |  |  |  |  | GI50 (K-562; Homo sapiens, K562): 1450 nM; CC50 (K-562; Homo sapiens, K562, read-out: LC50): 5280 nM; TGI (K-562; Leukemia, K-562): 2.77 × 10^−6; GI50 (NCI-H522; Homo sapiens, NCI-H522): 1450 nM; CC50 (NCI-H522; Homo sapiens, NCI-H522, read-out: LC50): 5280 nM; TGI (NCI-H522; Non-Small Cell Lung Cancer, NCI-H522): 2.77 × 10^−6; GI50 (HL-60(TB); Homo sapiens, HL-60): 1080 nM; CC50 (HL-60(TB); Homo sapiens, HL-60, read-out: LC50): 4790 nM; TGI (HL-60(TB); Leukemia, HL-60(TB)): 2.27 × 10^−6; GI50 (RPMI-8226; Homo sapiens, RPMI-8226): 1470 nM; CC50 (RPMI-8226; Homo sapiens, RPMI-8226, read-out: LC50): 5280 nM; TGI (RPMI-8226; Leukemia, RPMI-8226): 2.79 × 10^−6 |
| COC1=C[C@H]2C3=C(C(=O)c4ccccc4C3=O)N3C(=O)C(=O)N(Cc4ccco4)[C@]23C=C1 |  |  |  |  |  |  |  |  |  | 1.35 × 10^−6 | 177 nM | 7960 nM | 1130 nM | 9080 nM | 3.21 × 10^−6 | 1380 nM | ≥ 100000 nM | 6.38 × 10^−6 |  |
| C=CCCOC1=C[C@H]2C3=C(C(=O)c4ccccc4C3=O)N3C(=O)C(=O)N(Cc4ccc(C)cc4)[C@]23C=C1 |  |  |  |  |  |  |  |  |  | 6.86 × 10^−7 | 20.9 nM | ≥ 100000 nM |  |  |  |  |  |  | GI50 (SR; Homo sapiens): 862 nM; CC50 (SR; Homo sapiens, read-out: LC50): ≥ 100000 nM; TGI (SR; Leukemia): 1.00 × 10^−4; GI50 (OVCAR-4; Homo sapiens, OVCAR-4): 875 nM; CC50 (OVCAR-4; Homo sapiens, OVCAR-4, read-out: LC50): ≥ 100000 nM; TGI (OVCAR-4; Ovarian Cancer, OVCAR-4): 7.04 × 10^−6 |
| COC1=CC2C3=C(C(=O)c4ccccc4C3=O)N3C(=O)C(=O)N(Cc4ccsc4)[C@]23C=C1 (stereo partly drawn) |  |  |  |  |  |  |  |  |  | 8.16 × 10^−7 | 113 nM | 9320 nM | 10 nM | 6040 nM | 2.16 × 10^−6 | 1270 nM | 70500 nM | 1.40 × 10^−5 | GI50 (EKVX; Homo sapiens): 1110 nM; CC50 (EKVX; [1]): 25700 nM; TGI (EKVX): 5.75 × 10^−6; GI50 (RXF 393; Homo sapiens): 1430 nM; CC50 (RXF 393; [1]): 9920 nM; TGI (RXF 393): 3.76 × 10^−6; TGI (MCF7; Breast Cancer, MCF7): 5.88 × 10^−6; GI50 (MCF7; Homo sapiens, MCF7): 1260 nM; CC50 (MCF7; Homo sapiens, MCF7, read-out: LC50): 25200 nM |
| O=C1C2=C(C(=O)c3ccccc31)N1C(=O)N(Cc3ccccc3)C[C@@]13C=C[C@@H]2O3 | 3.26 × 10^−6 | 1390 nM | 7640 nM |  |  |  |  |  |  | 1.59 × 10^−6 | 472 nM | 4080 nM |  |  |  |  |  |  |  |
| O=C1C=C(NC(=O)[C@H](Cc2ccccc2)n2cccc2)C(=O)c2ccccc21 | 2.74 × 10^−6 | 1420 nM | 5260 nM | 685 nM | 4290 nM | 1.84 × 10^−6 | 1110 nM | 4840 nM | 2.32 × 10^−6 |  |  |  |  |  |  |  |  |  |  |
